# Reference: US20130041005A1, “PHARMACEUTICAL COMPOSITIONS COMPRISING NEUROPILIN INHIBITORS, AND THEIR USE FOR THE PREVENTION AND/OR TREATMENT OF ANGIOGENIC DISORDERS AND CANCERS” (TRAGEX PHARMA, priority 2011, published 2013)
# Key:
# HUVEC cells = test: WST-1 proliferation assay, HUVEC; assay type: cell-based; settings: FIG. 1 cell survival
# Method: (§1) Cells were grown as subconfluent monolayer and cultured in 75 cm^2 flasks at 37° C., 5% CO2 in a humidified atmosphere, and medium was changed every two days. Only cells from passages 2-6 were used for the experiments.
# (§2) All cells were detached with 3 ml of trypsin/EDTA (chelator of calcium and magnesium ions) (Lonza), incubated for 5 min at 37° C., and examined using a microscope to ensure that the cells were detached and floating. […] The supernatant was removed and the cell pellet resuspended in […] of culture medium. 50 μl of this solution were transferred in 20 μl of isotonic solution and the cells were counted by count cellular (Beckman Coulter).
# (§3) The cell proliferation WST-1 assay is a colorimetric assay for the quantification of cell proliferation and viability, based on the enzymatic cleavage of the tetrazolium salt WST-1 added to the culture medium, to a water soluble colored formazan dye, detected by absorbance at 450 nm, by mitochondrial succinate-tetrazolium reductase in viable cells. An augmentation in enzyme activity will then lead to an increase in the amount of formazan dye formed, which directly correlates to the number of metabolically active cells in the culture.
# (§4) After an incubation period of 72 h, at day 4, were prepared the […] medium with reagent WST-1 […] ([…]). The medium was removed from the 96 microplate and 200 μl of solution WST-1/medium were added for each well. The cells were incubated at 37° C. in a humidified atmosphere of 5% CO2 for 1 h 30 and the absorbance at 450-655 nm was measured by Microplate Manager 5.2 (Bio-Rad).
# MDA-MB-231 = test: WST-1 proliferation assay, MDA-MB-231; assay type: cell-based, Human; settings: MDAMB-231 cell survival, FIGS. 1A-C
# Method: as §1, §2, §3, §4
# MDAMB-231 cells = test: Adhesion test (crystal violet), MDA-MB-231; assay type: cell-based, Human; settings: MDAMB-231, FIGS. 1A-C
# Method: The crystal violet (hexamethyl pararosaniline chloride) is used as biologic colorant. It enters in the living cells, allowing the visualisation of the dark purple adherent living cells on the bottom of the plate.
# After an incubation period of 72 h, the adherent cells were fixed with […] paraformaldehyde
# 3% for 15 min at room temperature. The medium and non-adherent cells were removed, and the cells were washed extensively with […] PBS (+Ca^2+ and +Mg^2+) (Lonza) and then stained with 50 μl of crystal violet 0.04% for 30 min at room temperature. The cells were washed gently 3 times with 100 μl PBS and were permeabilised with 100 μl triton 2% for 15 min. The microplate was stirred to obtain a homogenous solution and absorbance was quantified at 580 nm by Microplate Manager 5.2.
# The percentage of inhibition is calculated as follow: % inhibition=100−[(DOsample/DOcontrol)*100].
# NRP-1 = target: T1, NRP-1 (Homo sapiens, UniProt O14786); test: ELISA inhibition of VEGF binding to NRP-1; settings: compounds at 10 μM
# T1 construct: purchased R&D Systems, UK 3870-N1-025
# T1 sequence (O14786 22-644 isoform O14786-2 limits assumed): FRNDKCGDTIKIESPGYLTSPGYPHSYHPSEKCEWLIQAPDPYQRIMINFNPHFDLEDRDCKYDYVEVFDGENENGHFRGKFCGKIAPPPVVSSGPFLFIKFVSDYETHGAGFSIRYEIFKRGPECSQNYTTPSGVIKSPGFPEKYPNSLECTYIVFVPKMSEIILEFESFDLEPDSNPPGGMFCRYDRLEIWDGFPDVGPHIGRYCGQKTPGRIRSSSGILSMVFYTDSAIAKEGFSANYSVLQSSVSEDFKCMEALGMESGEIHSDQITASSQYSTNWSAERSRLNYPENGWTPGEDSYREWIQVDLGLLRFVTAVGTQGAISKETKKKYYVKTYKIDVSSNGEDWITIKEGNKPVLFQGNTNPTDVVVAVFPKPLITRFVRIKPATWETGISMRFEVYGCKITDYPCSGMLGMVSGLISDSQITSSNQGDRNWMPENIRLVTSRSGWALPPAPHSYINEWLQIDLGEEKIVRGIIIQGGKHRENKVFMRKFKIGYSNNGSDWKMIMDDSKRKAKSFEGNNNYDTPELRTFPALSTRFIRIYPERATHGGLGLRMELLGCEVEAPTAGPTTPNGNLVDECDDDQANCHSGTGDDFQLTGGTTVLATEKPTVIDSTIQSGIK
# Method: Elisa test was performed covering a 96-well microplate (BD Biosciences, France, cat no 353046) surface with 100 μl of 1×PBS, pH 7.4 with Ca^2+ and Mg^2+, (Lonza, France, cat no 17-513F/12) solution containing 0.2 μg/ml of VEGF-R1 (R&D Systems, UK, cat no 321-FL-050/CF) or 2 μg/ml of NRP-1 (R&D Systems, UK, cat no 3870-N1-025) or NRP-2 (R&D Systems, UK, cat no […]). The plate was sealed and incubated overnight at 4° C. After 3 washes with 200 μl of 1×PBS 0.5% (v/v) Tween 20 (Sigma, France, cat no 34078) (Buffer A), the plate was blocked by adding 200 μl of 1×PBS with 0.5% (w/v) BSA (Eurobio, France, cat no GAUBSA01-65) and agitated at 37° C. for 2 h. After washing five times with Buffer A, 50 μl/well of the compounds of the invention at 10 μM were added for the specific signal and 50 μl/well for the non-specific and max binding signal and incubated at 37° C. for 1 hour, shacking. 50 μl of btVEGF (R&D Systems, UK, cat no NFVEO) at […] for NRP-1/4 μg/ml Heparin (Sigma, USA, cat no H3393-10KU), 300 μg/ml for NRP-2 and 100 μg/ml for VEGF-R1 solution was added to each well; the plate was sealed and incubated at 37° C. for 2 h, shacking. The last incubation was carried out, after five washes with Buffer A, adding 100 μl/well Streptavidin-Horseradish Peroxidase (Amersham, Switzerland, cat no RPN4401) diluted 1:8000 with buffer A. After 1 h shacking at 37° C. under obscurity, the plate was washed 5 times with buffer A and 100 μl of SuperSignal west picochemiluminescent substrate (Interchim, USA cat no 34078) were added. Luminescence was quantified with an EnVision™ 2101 Multilabel reader (Perkin Elmer, USA) and the data analyzed by Wallac Envision manager software. Signal is given as relative light units (RLU). Non-specific binding is defined as the signal measured in the absence of receptor coated on the microplate. The specific binding was calculated as the difference between total binding and non-specific binding. The percentage of inhibition was calculated as following: […]
smiles,measurement,setting,value
"O=C(NC(=S)Nc1cccc(-c2nc3ccccc3[nH]2)c1)c1ccc2c(c1)OCO2 [Compound 3, N-[3-(1H-benzimidazol-2-yl)phenyl]-N′-(1,3-benzodioxol-5-ylcarbonyl)thiourea]",cytotoxicity for endothelial cell lines (HUVEC cells) in culture,HUVEC cells,cytotoxic
same,cytotoxicity for cancer cells in vitro,MDA-MB-231,cytotoxic
same,inhibition of adhesion of cancer cells in culture,MDAMB-231 cells,inhibited the adhesion
same,inhibition at 10 µM,NRP-1,46 ± 3%
